Reference: PubChem BioAssay (NCI)
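Assay format: 96-well plates, 48-hour exposure. GI50 = concentration required for 50% inhibition of growth. TGI denotes the concentration required for complete inhibition of growth.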

How the values were obtained:
Assay in all cases: NCI-60 cell line screen, 48 h
TK-10 renal = tested on: TK-10 renal
SW-620 colon = tested on: SW-620 colon
MALME-3M melanoma = tested on: MALME-3M melanoma
A549 NSCLC = tested on: A549 NSCLC
ACHN renal = tested on: ACHN renal
OVCAR-5 ovarian = tested on: OVCAR-5 ovarian
SK-OV-3 ovarian = tested on: SK-OV-3 ovarian
NCI-H522 lung = tested on: NCI-H522 lung
NCI-H23 lung = tested on: NCI-H23 lung
MDA-MB-468 breast = tested on: MDA-MB-468 breast
SK-MEL-5 melanoma = tested on: SK-MEL-5 melanoma
SF-539 CNS = tested on: SF-539 CNS
CAKI-1 renal = tested on: CAKI-1 renal
HT29 colon = tested on: HT29 colon
SNB-19 CNS = tested on: SNB-19 CNS
SN12C renal = tested on: SN12C renal
PC-3 prostate = tested on: PC-3 prostate
EKVX NSCLC = tested on: EKVX NSCLC
CCRF-CEM leukemia = tested on: CCRF-CEM leukemia
NCI-H226 lung = tested on: NCI-H226 lung
RXF 393 renal = tested on: RXF 393 renal
A498 renal = tested on: A498 renal
HS 578T breast = tested on: HS 578T breast
786-0 renal = tested on: 786-0 renal
U251 CNS = tested on: U251 CNS
MDA-MB-231 breast = tested on: MDA-MB-231 breast
UACC-62 melanoma = tested on: UACC-62 melanoma
K-562 leukemia = tested on: K-562 leukemia
MCF7 breast = tested on: MCF7 breast
OVCAR-4 ovarian = tested on: OVCAR-4 ovarian
LOX IMVI melanoma = tested on: LOX IMVI melanoma
MDA-MB-435 = tested on: MDA-MB-435
RPMI-8226 leukemia = tested on: RPMI-8226 leukemia
SK-MEL-2 melanoma = tested on: SK-MEL-2 melanoma
HCT-116 colon = tested on: HCT-116 colon
COLO 205 colon = tested on: COLO 205 colon
HOP-92 NSCLC = tested on: HOP-92 NSCLC
MOLT-4 leukemia = tested on: MOLT-4 leukemia
UO-31 renal = tested on: UO-31 renal
OVCAR-8 ovarian = tested on: OVCAR-8 ovarian
M14 melanoma = tested on: M14 melanoma
HL-60(TB) leukemia = tested on: HL-60(TB) leukemia
DU-145 prostate = tested on: DU-145 prostate
SR leukemia = tested on: SR leukemia
IGROV1 ovarian = tested on: IGROV1 ovarian
HCC-2998 colon = tested on: HCC-2998 colon
SK-MEL-28 melanoma = tested on: SK-MEL-28 melanoma
SF-268 CNS = tested on: SF-268 CNS
HOP-62 NSCLC = tested on: HOP-62 NSCLC
HCT-15 colon = tested on: HCT-15 colon
BT-549 breast = tested on: BT-549 breast
SF-295 CNS = tested on: SF-295 CNS
NCI-H460 lung = tested on: NCI-H460 lung
SNB-75 CNS = tested on: SNB-75 CNS
UACC-257 melanoma = tested on: UACC-257 melanoma
T-47D breast = tested on: T-47D breast
KM12 colon = tested on: KM12 colon
OVCAR-3 ovarian = tested on: OVCAR-3 ovarian

Work on C=C1CC[C@@H]2[C@]3(C)COC(c4cn[nH]c4-c4ccc(C)cc4)O[C@@H]3CC[C@@]2(C)[C@@H]1C/C=C1/C(=O)OCC1O (stereo partly specified) yielded a GI50 (TK-10 renal) of 22.5 µM, a TGI (TK-10 renal) of 48.3 µM and a GI50 (SW-620 colon) of 4.6 µM. For the same compound, the TGI (SW-620 colon) was 17.5 µM, the GI50 (MALME-3M melanoma) was 15.8 µM and the TGI (MALME-3M melanoma) was 33.5 µM. For the same compound, the GI50 (A549 NSCLC) was 26.4 µM, the TGI (A549 NSCLC) was > 100 µM and the GI50 (ACHN renal) was 15.7 µM. It also gave a TGI (ACHN renal) of 36.3 µM, a GI50 (OVCAR-5 ovarian) of 15.5 µM and a TGI (OVCAR-5 ovarian) of 32.6 µM. The GI50 (SK-OV-3 ovarian) was 26.5 µM, the TGI (SK-OV-3 ovarian) was 74.8 µM and the GI50 (NCI-H522 lung) was 7.01 µM. For the same compound, the TGI (NCI-H522 lung) was 22.5 µM, the GI50 (NCI-H23 lung) was 14 µM and the TGI (NCI-H23 lung) was 27 µM. For the same compound, the GI50 (MDA-MB-468 breast) was 6.94 µM, the TGI (MDA-MB-468 breast) was 22.1 µM and the GI50 (SK-MEL-5 melanoma) was 12.6 µM. It also gave a TGI (SK-MEL-5 melanoma) of 25.3 µM, a GI50 (SF-539 CNS) of 12.7 µM and a TGI (SF-539 CNS) of 25.3 µM. For the same compound, the GI50 (CAKI-1 renal) was 12.5 µM, the TGI (CAKI-1 renal) was > 100 µM and the GI50 (HT29 colon) was 13.1 µM. For the same compound, the TGI (HT29 colon) was 45.8 µM, the GI50 (SNB-19 CNS) was 14.5 µM and the TGI (SNB-19 CNS) was 27.6 µM. For the same compound, the GI50 (SN12C renal) was 17.3 µM, the TGI (SN12C renal) was 42.8 µM and the GI50 (PC-3 prostate) was 21.7 µM. For the same compound, the TGI (PC-3 prostate) was > 100 µM, the GI50 (EKVX NSCLC) was 18.2 µM and the TGI (EKVX NSCLC) was 43.8 µM. The GI50 (CCRF-CEM leukemia) was 2.85 µM, the TGI (CCRF-CEM leukemia) was > 100 µM and the GI50 (NCI-H226 lung) was 17.8 µM. It also gave a TGI (NCI-H226 lung) of 44.7 µM, a GI50 (RXF 393 renal) of 12.5 µM and a TGI (RXF 393 renal) of 25 µM. For the same compound, the GI50 (A498 renal) was 21 µM, the TGI (A498 renal) was 37.2 µM and the GI50 (HS 578T breast) was 63.9 µM. The TGI (HS 578T breast) was > 100 µM, the GI50 (786-0 renal) was 16.7 µM and the TGI (786-0 renal) was 33.2 µM. For the same compound, the GI50 (U251 CNS) was 11.9 µM, the TGI (U251 CNS) was 28.6 µM and the GI50 (MDA-MB-231 breast) was 19.2 µM. For the same compound, the TGI (MDA-MB-231 breast) was 43.5 µM, the GI50 (UACC-62 melanoma) was 13.3 µM and the TGI (UACC-62 melanoma) was 27 µM. The GI50 (K-562 leukemia) was 5.55 µM, the TGI (K-562 leukemia) was > 100 µM and the GI50 (MCF7 breast) was 4.88 µM. For the same compound, the TGI (MCF7 breast) was 19.4 µM, the GI50 (OVCAR-4 ovarian) was 64.8 µM and the TGI (OVCAR-4 ovarian) was > 100 µM. For the same compound, the GI50 (LOX IMVI melanoma) was 3.76 µM, the TGI (LOX IMVI melanoma) was 15.7 µM and the GI50 (MDA-MB-435) was 7.38 µM. The TGI (MDA-MB-435) was 73.9 µM, the GI50 (RPMI-8226 leukemia) was 4.73 µM and the TGI (RPMI-8226 leukemia) was > 100 µM. For the same compound, the GI50 (SK-MEL-2 melanoma) was 13.9 µM, the TGI (SK-MEL-2 melanoma) was 30.4 µM and the GI50 (HCT-116 colon) was 5.33 µM. It also gave a TGI (HCT-116 colon) of 20.6 µM, a GI50 (COLO 205 colon) of 15.5 µM and a TGI (COLO 205 colon) of 29.9 µM. It also gave a GI50 (HOP-92 NSCLC) of 17.8 µM, a TGI (HOP-92 NSCLC) of 42.5 µM and a GI50 (MOLT-4 leukemia) of 5.14 µM. The TGI (MOLT-4 leukemia) was > 100 µM, the GI50 (UO-31 renal) was 12.5 µM and the TGI (UO-31 renal) was 25.7 µM. For the same compound, the GI50 (OVCAR-8 ovarian) was 9.29 µM, the TGI (OVCAR-8 ovarian) was > 100 µM and the GI50 (M14 melanoma) was 12.6 µM. It also gave a TGI (M14 melanoma) of 26.2 µM, a GI50 (HL-60(TB) leukemia) of 3.38 µM and a TGI (HL-60(TB) leukemia) of 56.4 µM. For the same compound, the GI50 (DU-145 prostate) was 24.6 µM, the TGI (DU-145 prostate) was > 100 µM and the GI50 (SR leukemia) was 7.16 µM. For the same compound, the TGI (SR leukemia) was > 100 µM, the GI50 (IGROV1 ovarian) was 17.5 µM and the TGI (IGROV1 ovarian) was 39.7 µM. For the same compound, the GI50 (HCC-2998 colon) was 16.7 µM, the TGI (HCC-2998 colon) was 30.4 µM and the GI50 (SK-MEL-28 melanoma) was 12.8 µM. The TGI (SK-MEL-28 melanoma) was 27 µM, the GI50 (SF-268 CNS) was 34.7 µM and the TGI (SF-268 CNS) was > 100 µM. The GI50 (HOP-62 NSCLC) was 21.7 µM, the TGI (HOP-62 NSCLC) was 75.2 µM and the GI50 (HCT-15 colon) was 10.1 µM. It also gave a TGI (HCT-15 colon) of 25.5 µM, a GI50 (BT-549 breast) of 11.1 µM and a TGI (BT-549 breast) of 37.8 µM. It also gave a GI50 (SF-295 CNS) of 18.2 µM, a TGI (SF-295 CNS) of 36.5 µM and a GI50 (NCI-H460 lung) of 20 µM. For the same compound, the TGI (NCI-H460 lung) was 46.9 µM, the GI50 (SNB-75 CNS) was 20.6 µM and the TGI (SNB-75 CNS) was > 100 µM. The GI50 (UACC-257 melanoma) was 15.2 µM, the TGI (UACC-257 melanoma) was 44.4 µM and the GI50 (T-47D breast) was 13.9 µM. The TGI (T-47D breast) was > 100 µM, the GI50 (KM12 colon) was 13.7 µM and the TGI (KM12 colon) was 35.8 µM. It also gave a GI50 (OVCAR-3 ovarian) of 3.39 µM and a TGI (OVCAR-3 ovarian) of 13.8 µM.
